Assay results: PMC9820070, “Synthesis, Photochemistry, Computational Study and Potential Application of New Styryl-Thiophene and Naphtho-Thiophene Benzylamines” (International Journal of Molecular Sciences, 2022)

Key:
[1] = test system: TNFα production in human PBMCs; assay: TNFα production in LPS stimulated PBMCs; format: cell-based; conditions: compound treatment and LPS stimulation
THP-1 cell line = assay: THP-1 cell viability assay (CellTiter Glo); format: cell-based; conditions: THP-1, 72 h incubation
[2] = target: acetylcholinesterase from electric eel (Electrophorus electricus, UniProt O42275); assay: biochemical
acetylcholinesterase from electric eel, sequence (O42275 24-633): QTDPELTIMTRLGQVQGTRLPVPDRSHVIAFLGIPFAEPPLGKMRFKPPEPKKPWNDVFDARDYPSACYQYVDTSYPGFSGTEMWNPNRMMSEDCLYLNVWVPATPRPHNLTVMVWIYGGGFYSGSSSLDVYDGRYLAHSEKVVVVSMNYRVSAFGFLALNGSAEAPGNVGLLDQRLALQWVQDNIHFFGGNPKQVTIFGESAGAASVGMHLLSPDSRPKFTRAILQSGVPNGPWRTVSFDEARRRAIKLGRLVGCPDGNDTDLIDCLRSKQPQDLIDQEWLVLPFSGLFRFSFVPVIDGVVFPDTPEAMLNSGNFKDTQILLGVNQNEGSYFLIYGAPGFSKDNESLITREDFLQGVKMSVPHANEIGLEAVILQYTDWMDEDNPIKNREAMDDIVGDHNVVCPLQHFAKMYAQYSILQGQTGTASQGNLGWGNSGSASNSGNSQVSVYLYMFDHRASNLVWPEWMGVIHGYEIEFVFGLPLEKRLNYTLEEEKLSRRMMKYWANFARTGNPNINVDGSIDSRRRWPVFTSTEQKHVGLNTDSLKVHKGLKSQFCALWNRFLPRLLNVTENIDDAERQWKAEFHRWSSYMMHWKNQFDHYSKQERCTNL

[3] = target: T1, butyrylcholinesterase from equine serum (Equus caballus, UniProt P81908); assay: biochemical
T1 sequence (P81908 whole entry): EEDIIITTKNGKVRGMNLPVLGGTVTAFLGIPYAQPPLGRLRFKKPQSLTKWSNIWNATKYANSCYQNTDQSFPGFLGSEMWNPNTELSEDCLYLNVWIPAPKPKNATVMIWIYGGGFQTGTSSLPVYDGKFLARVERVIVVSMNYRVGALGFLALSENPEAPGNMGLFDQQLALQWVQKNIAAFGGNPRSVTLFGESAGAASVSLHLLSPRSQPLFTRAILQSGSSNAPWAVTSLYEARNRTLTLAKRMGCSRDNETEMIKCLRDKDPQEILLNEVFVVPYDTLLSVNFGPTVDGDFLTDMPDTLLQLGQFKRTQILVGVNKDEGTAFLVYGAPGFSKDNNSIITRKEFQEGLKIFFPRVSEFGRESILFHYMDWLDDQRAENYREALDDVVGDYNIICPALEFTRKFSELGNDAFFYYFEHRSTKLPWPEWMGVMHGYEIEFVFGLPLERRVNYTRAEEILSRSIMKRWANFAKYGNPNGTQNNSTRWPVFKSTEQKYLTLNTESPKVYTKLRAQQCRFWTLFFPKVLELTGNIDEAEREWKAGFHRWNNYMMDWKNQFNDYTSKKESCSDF

[4] = Acid resistance: pH change of UV spectra and NMR control at pH 1; format: physicochemical; conditions: 1H NMR spectrum recorded at pH 1
[5] = target: T1, butyrylcholinesterase from equine serum; conditions: earlier work; cited from earlier work
[6] = test system: TNFα production in human PBMCs; parameters: method as in PMID 35228009; conditions: earlier work; cited from earlier work

In the case of `Fc1ccc(CNc2ccc3ccc4sccc4c3c2)cc1` [Compound 9, N-(4-fluorobenzyl)naphtho [2,1-b]thiophen-8-amine], the “effect on TNFα production” value [1] is reported as “did not have any effect” and the “effect on cell viability (antiproliferative activity)” value (THP-1 cell line) is reported as “most potent”.

In the case of `Fc1ccc(CNc2ccc(/C=C/c3cccs3)cc2)cc1` [trans-2, (E)-N-(4-fluorobenzyl)-4-(2-(thiophen-2-yl)vinyl)aniline], the “effect on TNFα production” value [1] is reported as “did not have any effect”.

For `C(=C\c1cccs1)/c1ccc(NCc2cccs2)cc1` [trans-8, (E)-4-(2-(thiophen-2-yl)vinyl)-N-(thiophen-2-ylmethyl)aniline], the “inhibition values, AChE” value [2] was “smaller than 50%” and the “inhibition values, BChE” value ([3]; tested at final concentrations 20–250 μM) was “smaller than 50%”.

With `c1csc(CNc2ccc3ccc4sccc4c3c2)c1` [Compound 15, N-(thiophen-2-ylmethyl)naphtho [2,1-b]thiophen-8-amine] the IC50 ([3]; equine serum BChE, Ellman's method) was ~32.3 µM.

In the case of `C(=C/c1cccs1)/c1ccc(NCc2cccs2)cc1` [cis-8, (Z)-4-(2-(thiophen-2-yl)vinyl)-N-(thiophen-2-ylmethyl)aniline], the IC50 ([2]; electric eel AChE, Ellman's method) is reported as 133 µM and the “acid resistance (1H NMR, cis configuration retained)” value [4] is reported as “strong acid resistance”.

In the case of `C=CCn1nnc2ccc3sccc3c21` [allyl-thienobenzotriazole IV], the “potency as inhibitor of eqBChE compared to the standard galantamine” value [5] is listed as “twice as potent” and the “TNFα production in PBMCs in response to the LPS stimulus” value [6] is listed as “strongly inhibited”.

In the case of `COc1ccc(CNc2ccc3ccc4sccc4c3c2)cc1` [Compound 13, N-(4-methoxybenzyl)naphtho [2,1-b]thiophen-8-amine], the “effect on TNFα production” value [1] is reported as “did not have any effect” and the “effect on cell viability (antiproliferative activity)” value (THP-1 cell line) is reported as “most potent”.
